Laboratory results: patent publication US20250129091A1, “THIENOPYRROLOTRIAZINE COMPOUNDS, THEIR PREPARATION AND THEIR THERAPEUTIC USE” (Sanofi, priority 2022, published 2025)
Structures can show the parent of a compound that is named as a salt. Where two headings read alike, the source gives them in different places.

Test system: NLRP3 inflammasome
Assay: IL-1β secretion assay (LPS-primed, nigericin-activated THP-1 cells, MSD readout)
Type: cell-based
Settings: read-out: IL1b IC50
Description: Monocytic THP-1 cells (DSMZ) were maintained in RPMI media (RPMI 1640 Medium (1×) +10% FBS, Eurobio CVFSVFOO—OU). Cells were then plated at 16,000 cells per well in 96-well round bottom cell culture plates (TPP, ref 92097) and maintained with RPMI and 0.1% Bovine Serum Albumin solution. Activation of the NLRP3 inflammasome requires both an NF-kB-dependent priming step and the addition of a NLRP3 activator. The priming step was induced by LPS (10 ng/mL, Sigma, ref:L4391) for 3 h at 37° C., then compound, in a 1:3.10 serial dilution series in DMSO 1:100, and the activator nigericin (Sigma Aldrich, ref: SML1779) 10 μM (final concentration) were added to the cells and co-incubated for 2 h. 50 μL supernatant was removed, and IL-1β levels were monitored using an MSD assay (Electro Chemical Luminescence Immunoassay (ECLI) according to manufacturers' instructions.
IC50 values were calculated from the plot of percentage of inhibition versus the inhibitor concentration by a logistics fit according to: y=A2+(A1−A2)/(1+(x/IC50)^p) where y is the %-inhibition at the inhibitor concentration, x. A1 is the lowest inhibition value, i.e., 0%, and A2 the maximum inhibition value, i.e., 100%. The exponent, p, is the Hill coefficient. The curve fitting was conducted with an internally developed software.

[1] = Homo sapiens, THP-1, LPS-primed

| SMILES | IC50 (LPS-primed) | IC50 [1] |
| --- | --- | --- |
| CC(O)c1nn(CC(=O)N[C@@H]2CCCN(C3CC3)C2)c(=O)c2cc3ccsc3n12 (single isomer, unassigned) [Example 51] | > 10000 nM | – |
| CC(C)c1nn(C(C)C(=O)N[C@@H]2CCCN(C3CC3)C2)c(=O)c2cc3ccsc3n12 (stereo partly drawn) [Example 26, N—((R)-1-cyclopropylpiperidin-3-yl)-2-(8-isopropyl-5-oxothieno[3′,2′:4,5]pyrrolo[1,2-d][1,2,4]triazin-6(5H)-yl)propanamide formate] | – | 1990 nM |
| CC(C)c1nn(CC(=O)N[C@@H]2CCCCN(C)C2)c(=O)c2cc3ccsc3n12 [Example 62, 2-(12-isopropyl-9-oxo-3-thia-1,10,11-triazatricyclo[6.4.0.02,6]dodeca-2(6),4,7,11-tetraen-10-yl)-N-[(3R)-1-methylazepan-3-yl]acetamide] | – | 850 nM |
| CC(C)c1nn(CC(=O)N[C@@H]2CCCN(C3(C)CCCC3)C2)c(=O)c2cc3ccsc3n12 [Example 71, 2-(12-isopropyl-9-oxo-3-thia-1,10,11-triazatricyclo[6.4.0.02,6]dodeca-2(6),4,7,11-tetraen-10-yl)-N-[(3R)-1-(1-methylcyclopentyl)-3-piperidyl]acetamide] | – | 70 nM |
| CCCc1nn(CC(=O)N[C@@H]2CCCN(C3CC3)C2)c(=O)c2cc3ccsc3n12 [Example 72, N-[(3R)-1-cyclopropylpiperidin-3-yl]-2-(9-oxo-12-propyl-3-thia-1,10,11-triazatricyclo [6.4.0.02,6]dodeca-2(6),4,7,11-tetraen-10-yl)acetamide] | – | > 10000 nM |
| CC(C)c1nn(CC(=O)NC2CN(C3CC3)CC(F)(F)C2)c(=O)c2cc3ccsc3n12 (centres unmarked) [Example 63, N-(1-cyclopropyl-5,5-difluoropiperidin-3-yl)-2-(8-isopropyl-5-oxothieno[3′,2′:4,5]pyrrolo [1,2-d][1,2,4]triazin-6(5H)-yl)acetamide 2,2,2-trifluoroacetate] | – | 1660 nM |
| CC(O)c1nn(CC(=O)N[C@@H]2CCCN(C3CCC3)C2)c(=O)c2cc3ccsc3n12 (single isomer, unassigned) [Example 81] | > 10000 nM | – |
| CC(C)c1nn(CC(=O)NC2CCCN(CC(F)(F)F)C2)c(=O)c2cc3ccsc3n12 (centres unmarked) [Example 38, 2-(8-isopropyl-5-oxothieno[3′,2′:4,5]pyrrolo[1,2-d][1,2,4]triazin-6(5H)-yl)-N-(1-(2,2,2-trifluoroethyl)piperidin-3-yl)acetamide 2,2,2-trifluoroacetate] | – | 1300 nM |
| CC(C)c1nn(CC(=O)Nc2cccnc2)c(=O)c2cc3ccsc3n12 [Example 56, 2-(12-isopropyl-9-oxo-3-thia-1,10,11-triazatricyclo[6.4.0.02,6]dodeca-2(6),4,7,11-tetraen-10-yl)-N-(3-pyridyl)acetamide] | – | 1470 nM |
| CC(C)c1nn(CC(=O)N[C@@H]2CCCN(CCC#N)C2)c(=O)c2cc3ccsc3n12 [Example 77, N-[(3R)-1-(2-cyanoethyl)piperidin-3-yl]-2-(8-isopropyl-5-oxothieno[3′,2′:4,5]pyrrolo[1,2-d][1,2,4]triazin-6(5H)-yl)acetamide] | – | 78 nM |
| CC(C)c1nn(CC(=O)NC2CCCN(C3CCC3(C)C)C2)c(=O)c2cc3ccsc3n12 (racemic) [Example 57, 2-(12-isopropyl-9-oxo-3-thia-1,10,11-triazatricyclo[6.4.0.02,6]dodeca-2(6),4,7,11-tetraen-10-yl)-N-[rac-(3R)-1-(2,2-dimethylcyclobutyl)-3-piperidyl]acetamide] | – | 1010 nM |
| CC(C)(O)c1nn(CC(=O)N[C@@H]2CCCN(C3CC3)C2)c(=O)c2cc3ccsc3n12 [Example 52, (R)—N-(1-cyclopropylpiperidin-3-yl)-2-(8-(2-hydroxypropan-2-yl)-5-oxothieno[3′,2′:4,5]pyrrolo[1,2-d][1,2,4]triazin-6(5H)-yl)acetamide] | – | 82 nM |
| COCC(C)N1CCC[C@@H](NC(=O)Cn2nc(C(C)C)n3c(cc4ccsc43)c2=O)C1 (stereo partly drawn) [Example 64, 2-(8-isopropyl-5-oxothieno[3′,2′:4,5]pyrrolo[1,2-d][1,2,4]triazin-6(5H)-yl)-N-((3R)-1-(1-methoxypropan-2-yl)piperidin-3-yl)acetamide] | – | 109 nM |
| CC(C)c1nn(CC(=O)NC2CCN(C)C(=O)C2)c(=O)c2cc3ccsc3n12 (centres unmarked) [Example 46, 2-(8-isopropyl-5-oxothieno[3′,2′:4,5]pyrrolo[1,2-d][1,2,4]triazin-6(5H)-yl)-N-(1-methyl-2-oxopiperidin-4-yl)acetamide] | – | 8200 nM |
| COCc1nn(CC(=O)N[C@@H]2CCCN(C3CC3)C2)c(=O)c2cc3cc(Cl)sc3n12 [Example 30, (R)-2-(2-chloro-8-(methoxymethyl)-5-oxothieno[3′,2′:4,5]pyrrolo[1,2-d][1,2,4]triazin-6(5H)-yl)-N-(1-cyclopropylpiperidin-3-yl)acetamide formate] | – | 1200 nM |
| CC(=O)NCC12CC(NC(=O)Cn3nc(C(C)C)n4c(cc5ccsc54)c3=O)(C1)C2 [Example 74, N-[3-(acetamidomethyl)bicyclo[1.1.1]pentan-1-yl]-2-(8-isopropyl-5-oxothieno[3′,2′:4,5]pyrrolo[1,2-d][1,2,4]triazin-6(5H)-yl)acetamide] | – | 344 nM |
| CC(C)c1nn(CC(=O)Nc2ccc3ncsc3c2)c(=O)c2cc3ccsc3n12 [Example 12, N-(benzo[d]thiazol-6-yl)-2-(8-isopropyl-5-oxothieno[3′,2′:4,5]pyrrolo[1,2-d][1,2,4]triazin-6(5H)-yl)acetamide] | – | 540 nM |
| CCc1nn(CC(=O)N[C@@H]2CCCN(C[C@H](C)O)C2)c(=O)c2cc3ccsc3n12 [Example 69, 2-(12-ethyl-9-oxo-3-thia-1,10,11-triazatricyclo[6.4.0.02,6]dodeca-2(6),4,7,11-tetraen-10-yl)-N-[(3R)-1-[(2S)-2-hydroxypropyl]-3-piperidyl]acetamide] | – | 3430 nM |
| CCOC(=O)C(C)(C)N1CCCC(NC(=O)Cn2nc(C(C)C)n3c(cc4ccsc43)c2=O)C1 (centres unmarked) [Example 80, ethyl 2-methyl-2-[3-[[2-(8-isopropyl-5-oxothieno[3′,2′:4,5]pyrrolo[1,2-d][1,2,4]triazin-6(5H)-yl)acetyl]amino]piperidin-1-yl]propanoate] | – | 322 nM |
| CC(C)c1nn(CC(=O)NC2CCN(C3CC3)C2)c(=O)c2cc3ccsc3n12 (centres unmarked) [Example 86, N-(1-cyclopropylpyrrolidin-3-yl)-2-(12-isopropyl-9-oxo-3-thia-1,10,11-triazatricyclo [6.4.0.02,6]dodeca-2(6),4,7,11-tetraen-10-yl)acetamide] | – | > 10000 nM |
| CC(O)c1nn(CC(=O)N[C@@H]2CCCN(C3CC3)C2)c(=O)c2cc3ccsc3n12 (single isomer, unassigned) [Example 44] | 278 nM | – |
| CC(C)c1nn(CC(=O)Nc2ccc3cnn(C)c3c2)c(=O)c2cc3ccsc3n12 [Example 27, 2-(8-isopropyl-5-oxothieno[3′,2′:4,5]pyrrolo[1,2-d][1,2,4]triazin-6(5H)-yl)-N-(1-methyl-1H-indazol-6-yl)acetamide formate] | – | 1030 nM |
| CC(C)c1nn(C(C)C(=O)N[C@@H]2CCCN(C3CCC3)C2)c(=O)c2cc3ccsc3n12 (stereo partly drawn) [Example 25, N—((R)-1-cyclobutylpiperidin-3-yl)-2-(8-isopropyl-5-oxothieno[3′,2′:4,5]pyrrolo[1,2-d][1,2,4]triazin-6(5H)-yl)propanamide formate] | – | 768 nM |
| CC(C)c1nn(CC(=O)N[C@@H]2CCCCN(C3CC3)C2)c(=O)c2cc3ccsc3n12 [Example 61, N-[(3R)-1-cyclopropylazepan-3-yl]-2-(12-isopropyl-9-oxo-3-thia-1,10,11-triazatricyclo [6.4.0.02,6]dodeca-2(6),4,7,11-tetraen-10-yl)acetamide] | – | 159 nM |
| COc1ccc(NC(=O)Cn2nc(C(C)C)n3c(cc4ccsc43)c2=O)cn1 [Example 16, 2-(8-isopropyl-5-oxothieno[3′,2′:4,5]pyrrolo[1,2-d][1,2,4]triazin-6(5H)-yl)-N-(6-methoxypyridin-3-yl)acetamide] | – | 1520 nM |
| CC(C)c1nn(CC(=O)N[C@@H]2CCCN(C(C)(C)CO)C2)c(=O)c2cc3ccsc3n12 [Example 79, N-[(3R)-1-(1-hydroxy-2-methylpropan-2-yl)piperidin-3-yl]-2-(8-isopropyl-5-oxothieno [3′,2′:4,5]pyrrolo[1,2-d][1,2,4]triazin-6(5H)-yl)acetamide] | – | 29 nM |
| CCc1nn(CC(=O)N[C@@H]2CCCN(C)C2)c(=O)c2cc3ccsc3n12 [Example 73, 2-(12-ethyl-9-oxo-3-thia-1,10,11-triazatricyclo[6.4.0.02,6]dodeca-2(6),4,7,11-tetraen-10-yl)-N-[(3R)-1-methyl-3-piperidyl]acetamide] | – | > 10000 nM |
| Cc1ccc(NC(=O)Cn2nc(C(C)C)n3c(cc4ccsc43)c2=O)cn1 [Example 68, 2-(12-isopropyl-9-oxo-3-thia-1,10,11-triazatricyclo[6.4.0.02,6]dodeca-2(6),4,7,11-tetraen-10-yl)-N-(6-methyl-3-pyridyl)acetamide] | – | 2280 nM |
| CC(C)c1nn(CC(=O)Nc2cncs2)c(=O)c2cc3cc(Cl)sc3n12 [Example 7, 2-(2-chloro-8-isopropyl-5-oxothieno[3′,2′:4,5]pyrrolo[1,2-d][1,2,4]triazin-6(5H)-yl)-N-(thiazol-5-yl)acetamide] | – | 1790 nM |
